In BigSolDB 2.1:

c1ccc2c(c1)Cc1ccccc1-2
solubility (mole fraction)
Conditions | 278.15 K | 283.15 K | 288.15 K | 293.15 K | 298.15 K | 303.15 K | 308.15 K | 313.15 K | 318.15 K
in THF | 0.12 | 0.13 | 0.148 | 0.163 | 0.182 | 0.2 | 0.225 | 0.248 | 0.273
in acetone | 0.0353 | 0.0406 | 0.0482 | 0.0567 | 0.0658 | 0.0779 | 0.0931 | 0.109 | 0.126
in acetonitrile | 0.0101 | 0.0113 | 0.0138 | 0.0161 | 0.0197 | 0.0235 | 0.0288 | 0.0345 | 0.0406
in ethanol | 0.0038 | 0.00448 | 0.0055 | 0.00669 | 0.00816 | 0.00937 | 0.0111 | 0.0132 | 0.0154
in ethyl acetate | 0.046 | 0.0542 | 0.062 | 0.0737 | 0.0866 | 0.102 | 0.119 | 0.139 | 0.163
in ethyl formate | 0.0346 | 0.0395 | 0.046 | 0.0552 | 0.0654 | 0.0781 | 0.0933 | 0.112 | 0.133
in isobutyl acetate | 0.0546 | 0.0611 | 0.0718 | 0.0816 | 0.0914 | 0.104 | 0.124 | 0.142 | 0.162
in isopropanol | 0.00401 | 0.0045 | 0.00559 | 0.00675 | 0.00808 | 0.00943 | 0.0121 | 0.0149 | 0.0177
in isopropyl acetate | 0.044 | 0.0504 | 0.058 | 0.0695 | 0.0812 | 0.0936 | 0.11 | 0.127 | 0.148
in methanol | 0.00199 | 0.00235 | 0.00275 | 0.00313 | 0.00395 | 0.00452 | 0.00528 | 0.00645 | 0.00709
in methyl acetate | 0.0374 | 0.0422 | 0.0498 | 0.0607 | 0.0712 | 0.0856 | 0.1 | 0.12 | 0.142
in n-butyl acetate | 0.0693 | 0.0756 | 0.0874 | 0.0991 | 0.111 | 0.121 | 0.146 | 0.167 | 0.19
in n-propanol | 0.0052 | 0.00612 | 0.0072 | 0.009 | 0.0112 | 0.013 | 0.0155 | 0.0186 | 0.0216
in n-propyl acetate | 0.0596 | 0.0671 | 0.0763 | 0.0862 | 0.0969 | 0.108 | 0.134 | 0.153 | 0.176
